Results from ChEMBL document CHEMBL1158640, “Synthesis, analgesic and anti-inflammatory activities of some novel pyrazolines derivatives” (Bioorg Med Chem Lett, 2010).
Active and inactive are the calls of the source. The rule behind the calls is not given here.

Columns and labels:
[1] = system: Rattus norvegicus; assay: Antiinflammatory activity in Wistar rat assessed as reduction of carrageenan-induced increase in paw volume at 1000 mg/kg, po; type: functional, organism-based; design: dose 1000 mg/kg
[2] = system: Rattus norvegicus; assay: Antiinflammatory activity in Wistar rat assessed as reduction of carrageenan-induced increase in paw volume at 30 mg/kg, po after 24 hrs; type: functional
[3] = system: Rattus norvegicus; assay: Toxicity in Wistar rat up to 1000 mg/kg, po; type: organism-based; design: dose 1000 mg/kg, route oral; details: in vivo
[4] = system: Rattus norvegicus; assay: Antiinflammatory activity in Wistar rat assessed as reduction of carrageenan-induced increase in paw volume at 30 mg/kg, po after 4 hrs; type: functional
[5] = system: Rattus norvegicus; assay: Antiinflammatory activity in Wistar rat assessed as reduction of carrageenan-induced increase in paw volume at 30 mg/kg, po after 3 hrs; type: functional
[6] = system: Rattus norvegicus; assay: Antiinflammatory activity in Wistar rat assessed as reduction of carrageenan-induced increase in paw volume at 30 mg/kg, po after 2 hrs; type: functional
[7] = system: Mus musculus; assay: Toxicity in Swiss albino mouse up to 1000 mg/kg, po; type: organism-based; design: dose 1000 mg/kg, route oral; details: in vivo
[8] = system: Mus musculus; assay: Analgesic activity against acetic acid-induced writhing in Swiss albino mouse at 30 mg/kg, po; type: functional, organism-based; design: dose 30 mg/kg

SMILES	Activity [1]	Activity [2] [mL]	Activity [3]	Activity [4] [mL]	Activity [5] [mL]	Activity [6] [mL]	Activity [7]	Activity [8]
Cc1cc(C)c(O)c(C2=NNC(c3ccc(N4CCOCC4)cc3)C2)c1 (stereo unspecified)	Active	1.92	Non-toxic	1.53	1.57	1.38	Non-toxic	–
Cc1cc(O)c(C2=NN(C(=S)Nc3ccccc3)C(c3ccc(N4CCOCC4)cc3)C2)cc1Cl (stereo unspecified)	Active	1.92	Non-toxic	1.57	1.53	1.42	Non-toxic	–
Cc1cc(C)c(O)c(C2=NN(C(=S)Nc3ccccc3)C(c3ccc(N4CCOCC4)cc3)C2)c1 (stereo unspecified)	Active	1.73	Non-toxic	1.63	1.81	1.41	Non-toxic	–
Oc1c(Cl)cc(Cl)cc1C1=NN(C(=S)Nc2ccccc2)C(c2ccc(N3CCOCC3)cc2)C1 (stereo unspecified)	Active	1.92	Non-toxic	1.52	1.47	1.49	Non-toxic	–
Oc1ccccc1C1=NN(C(=S)Nc2ccccc2)C(c2ccc(N3CCOCC3)cc2)C1 (stereo unspecified)	Active	0.94	Non-toxic	0.84	0.62	0.82	Non-toxic	–
Cc1cc(O)c(C2=NNC(c3ccc(N4CCOCC4)cc3)C2)cc1Cl (stereo unspecified)	Active	1.93	Non-toxic	1.63	1.62	1.56	Non-toxic	–
Cc1ccc(O)c(C2=NN(C(=S)Nc3ccccc3)C(c3ccc(N4CCOCC4)cc3)C2)c1 (stereo unspecified)	Active	1.92	Non-toxic	1.43	1.6	1.52	Non-toxic	–
Oc1ccc(Cl)cc1C1=NNC(c2ccc(N3CCOCC3)cc2)C1 (stereo unspecified)	Active	1.92	Non-toxic	1.61	1.6	1.52	Non-toxic	–
Oc1ccc(Br)cc1C1=NN(C(=S)Nc2ccccc2)C(c2ccc(N3CCOCC3)cc2)C1 (stereo unspecified)	Active	0.92	Non-toxic	0.91	0.69	0.87	Non-toxic	Active
Oc1ccc(Cl)cc1C1=NN(C(=S)Nc2ccccc2)C(c2ccc(N3CCOCC3)cc2)C1 (stereo unspecified)	Active	0.86	Non-toxic	0.72	0.72	0.64	Non-toxic	Active
Cc1ccc(O)c(C2=NNC(c3ccc(N4CCOCC4)cc3)C2)c1 (stereo unspecified)	Active	0.79	Non-toxic	0.96	0.85	0.87	Non-toxic	Active
Oc1ccccc1C1=NNC(c2ccc(N3CCOCC3)cc2)C1 (stereo unspecified)	Active	0.68	Non-toxic	0.69	0.59	0.73	Non-toxic	–
Oc1c(Cl)cc(Cl)cc1C1=NNC(c2ccc(N3CCOCC3)cc2)C1 (stereo unspecified)	Active	1.72	Non-toxic	1.75	1.46	1.41	Non-toxic	–
Oc1ccc(Br)cc1C1=NNC(c2ccc(N3CCOCC3)cc2)C1 (stereo unspecified)	Active	0.98	Non-toxic	0.64	0.52	0.86	Non-toxic	Active
O=C([O-])Cc1ccccc1Nc1c(Cl)cccc1Cl.[Na+] [DICLOFENAC SODIUM]	–	0.03	–	0.18	0.18	0.18	–	–
